Holding throughout (assay type): cell-based
The target in experiment [1] is T1, PPARγ (Homo sapiens, UniProt P37231).
T1 sequence (P37231 238-505 limits assumed): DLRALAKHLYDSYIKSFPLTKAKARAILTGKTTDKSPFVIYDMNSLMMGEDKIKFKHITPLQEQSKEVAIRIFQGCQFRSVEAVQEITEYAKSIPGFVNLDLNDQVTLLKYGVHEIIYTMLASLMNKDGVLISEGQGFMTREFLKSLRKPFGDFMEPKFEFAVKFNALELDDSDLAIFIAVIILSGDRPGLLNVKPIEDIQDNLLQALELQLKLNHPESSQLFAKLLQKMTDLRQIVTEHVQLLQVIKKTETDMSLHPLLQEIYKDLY
Kind of experiment: Cross-curve PPAR transactivation test (luciferase reporter, HeLN cells), PPARγ. To be noted: HeLN cells stably transfected with Gal-hPPARγ; apparent Kd by Schild regression against reference agonist; n.a. means not active; read-out: PPAR gamma Kd app. Here is the method:
(§1) This activity on the PPARα, δ and γ receptors is measured in a transactivation test and quantified by the dissociation constant Kdapp (apparent), as described in Example 142.
(§2) The activation of receptors with an agonist (activator) in HeLN cells leads to the expression of a reporter gene, luciferase, which, in the presence of a substrate, generates light. The modulation of the receptors is measured as quantity of luminescence produced after incubating the cells in the presence of a reference agonist. The ligands will displace the agonist from its site. The measurement of the activity is performed by quantification of the light produced. This measurement makes it possible to determine the modulatory activity of the compounds according to the invention by determining the constant which is the affinity of the molecule for the receptor. […]
(§3) The various dilutions of the test products and of the reference ligand are added in an amount of 5 [I per well. […] After 5 minutes, the plates are read by the luminescence reader.
(§4) These AC50 values are used to calculate the Schild regression by plotting a straight line corresponding to the Schild equation (“quantitation in receptor pharmacology” Terry P. Kenakin, Receptors and Channels, 2001, 7, 371-385) which leads to Kd app values being obtained (in nM).
In general terms: In a reporter assay the amount or activity of a reporter protein is the signal.

Experiment [2] has as its target T2, PPARα (Homo sapiens, UniProt Q07869).
T2 sequence (Q07869 200-468 limits assumed): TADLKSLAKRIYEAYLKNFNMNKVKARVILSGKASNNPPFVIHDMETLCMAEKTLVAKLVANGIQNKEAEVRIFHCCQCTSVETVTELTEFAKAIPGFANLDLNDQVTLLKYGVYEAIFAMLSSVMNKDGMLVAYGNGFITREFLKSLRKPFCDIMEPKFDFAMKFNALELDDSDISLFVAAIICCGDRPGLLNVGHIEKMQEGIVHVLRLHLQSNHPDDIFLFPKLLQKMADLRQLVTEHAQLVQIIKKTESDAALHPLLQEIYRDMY
Kind of experiment: Cross-curve PPAR transactivation test (luciferase reporter, HeLN cells), PPARα. To be noted: HeLN cells stably transfected with Gal-hPPARα; apparent Kd by Schild regression against reference agonist; n.a. means not active; read-out: PPAR alpha Kd app. The procedure: as §1, §2, §3, §4

The target of experiment [3] is PPARδ (Homo sapiens, UniProt Q03181). Kind of experiment: Cross-curve PPAR transactivation test (luciferase reporter, HeLN cells), PPARδ. To be noted: HeLN cells stably transfected with Gal-hPPARδ; apparent Kd by Schild regression against reference agonist; n.a. means not active; read-out: PPAR delta Kd app. The procedure:
as §1, §2, §3, §4

These results are taken from US20060052627A1, “Novel modulators of the PPAR-type receptors and cosmetic/pharmaceutical compositions comprised thereof” (GALDERMA RESEARCH & DEVELOPMENT, S.N.C., priority 2003, published 2006).

Sequence of PPARδ (Q03181 211-441 limits assumed): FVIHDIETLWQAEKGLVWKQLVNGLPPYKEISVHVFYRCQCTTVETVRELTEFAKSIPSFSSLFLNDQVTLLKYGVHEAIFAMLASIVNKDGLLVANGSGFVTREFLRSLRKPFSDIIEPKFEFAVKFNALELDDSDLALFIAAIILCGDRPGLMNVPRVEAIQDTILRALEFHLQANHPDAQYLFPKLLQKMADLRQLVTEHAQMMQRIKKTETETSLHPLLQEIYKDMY

`CCCCCCNC(=O)N(CCCc1ccccc1)c1cccc(Sc2ccc(CC(=O)O)cc2)c1` [Example 30b, (4-{3-[3-Hexyl-1-(3-phenylpropyl)ureido]phenylsulfanyl}phenyl)acetic acid]: the Kd in experiment [1] was 2000 nM; in experiment [2], 8 µM; in experiment [3] it was 120 nM.
Consider `O=C(O)Cc1ccc(Sc2ccc(N(CCc3ccccc3)C(=O)NC3CCCCC3)cc2)cc1` [Example 116b, {4-[4-(3-Cyclohexyl-1-phenethylureido)phenylsulfanyl]phenyl}acetic acid], for which the Kd worked out at 500 nM in experiment [1], 0.25 µM in experiment [2] and 120 nM in experiment [3].
